Source: ChEMBL document CHEMBL3244372, “Cholecystokinin (pancreozymin). 3. Synthesis and properties of an analogue of the C-terminal heptapeptide with serine sulfate replacing tyrosine sulfate” (1977)
Activity calls are given as the source filed them. The rule behind the calls is not given here. Square brackets hold non-standard residues; d marks the D form. Peptide text beside a SMILES is read from it. sY = N[C@@H](Cc1ccc(OS(=O)(=O)O)cc1)C(=O)O

How the values were obtained:
Cavia porcellus [1] = organism: Cavia porcellus; assay: Increase in [Ca2+] efflux from guinea pig pancreatic acinar cells measured for 5 mins relative to control; format: functional
[2] = Increase in [Ca2+] efflux from guinea pig pancreatic acinar cells at 10^-8 M assessed per minute relative to control; format: functional, Cavia porcellus
Cavia porcellus [3] = organism: Cavia porcellus; assay: Increase in [Ca2+] efflux from guinea pig pancreatic acinar cells at 3 x 10^-11 M measured for 5 mins relative to control; format: functional

Row | SMILES | Activity (Cavia porcellus [1]) | Activity [2] | Activity (Cavia porcellus [3])
1 | CSCC[C@H](NC(=O)[C@H](Cc1c[nH]c2ccccc12)NC(=O)CNC(=O)[C@H](CCSC)NC(=O)[C@@H](N)COS(=O)(=O)O)C(=O)N[C@@H](CC(=O)O)C(=O)N[C@@H](Cc1ccccc1)C(N)=O | Active | – | –
2 | CSCC[C@H](NC(=O)[C@H](Cc1c[nH]c2ccccc12)NC(=O)CNC(=O)[C@H](CCSC)NC(=O)[C@@H](N)CO)C(=O)N[C@@H](CC(=O)O)C(=O)N[C@@H](Cc1ccccc1)C(N)=O (H-SMGWMDF-NH2) | Active | – | –
3 | CSCC[C@H](NC(=O)[C@H](Cc1c[nH]c2ccccc12)NC(=O)CNC(=O)[C@H](CCSC)NC(=O)[C@@H](N)Cc1ccc(O)cc1)C(=O)N[C@@H](CC(=O)O)C(=O)N[C@@H](Cc1ccccc1)C(N)=O (H-YMGWMDF-NH2) | Active | – | –
4 | CSCC[C@H](NC(=O)[C@H](Cc1c[nH]c2ccccc12)NC(=O)CNC(=O)[C@H](CCSC)NC(=O)[C@@H](N)Cc1ccc(OS(=O)(=O)O)cc1)C(=O)N[C@@H](CC(=O)O)C(=O)N[C@@H](Cc1ccccc1)C(N)=O (H-[sY]MGWMDF-NH2) | Active | 26.2% | Active
